Patent US20250186541A1, “DLL3 TARGETING PEPTIDES AND CONSTRUCTS THEREOF” (MARIANA ONCOLOGY INC., priority 2023, published 2025)
Numbered stars: 1 amine (or outer) side, 2 acyl side, 3 side chain; on linkers, the order of the positions; unused ones are H or OH. Bridge positions count the residues as written; N and C are the ends. Square brackets hold non-standard residues; d marks the D form. Peptide text beside a SMILES is read from it. * marks the point of attachment. Ala(piperidin-4-yl) = O=C([C@H](CC1CCN([*:3])CC1)N[*:1])[*:2]; DOTA = O=C(O)CN1CCN(CC(=O)O)CCN(CC(=O)*)CCN(CC(=O)O)CC1; Trp(7-Me) = Cc1cccc2c(C[C@H](N)C(=O)O)c[nH]c12; Phe(4-CH2NH2) = NCc1ccc(C[C@H](N)C(=O)O)cc1; 1Nal = N[C@@H](Cc1cccc2ccccc12)C(=O)O; 2Nal = N[C@@H](Cc1ccc2ccccc2c1)C(=O)O; NMetBuAla = CN[C@@H](CC(C)(C)C)C(=O)O; NMeChg = CN[C@H](C(=O)O)C1CCCCC1; tBuAla = CC(C)(C)C[C@H](N)C(=O)O; AllylGly = C=CC[C@H](N)C(=O)O; Chg = N[C@H](C(=O)O)C1CCCCC1; αMeP = C[C@@]1(C(=O)O)CCCN1; Ahx = NCCCCCC(=O)O

These molecules were tested against T1, human DLL3 (Homo sapiens, UniProt Q9NYJ7) (assay: Affinity determination by Surface Plasmon Resonance (SPR), Biacore, 1:1 binding model). Settings: biotinylated human DLL3 on streptavidin chip, 25° C.; NB = nonbinding.
T1 construct: biotin (biotinylated)
T1 sequence (Q9NYJ7 27-618): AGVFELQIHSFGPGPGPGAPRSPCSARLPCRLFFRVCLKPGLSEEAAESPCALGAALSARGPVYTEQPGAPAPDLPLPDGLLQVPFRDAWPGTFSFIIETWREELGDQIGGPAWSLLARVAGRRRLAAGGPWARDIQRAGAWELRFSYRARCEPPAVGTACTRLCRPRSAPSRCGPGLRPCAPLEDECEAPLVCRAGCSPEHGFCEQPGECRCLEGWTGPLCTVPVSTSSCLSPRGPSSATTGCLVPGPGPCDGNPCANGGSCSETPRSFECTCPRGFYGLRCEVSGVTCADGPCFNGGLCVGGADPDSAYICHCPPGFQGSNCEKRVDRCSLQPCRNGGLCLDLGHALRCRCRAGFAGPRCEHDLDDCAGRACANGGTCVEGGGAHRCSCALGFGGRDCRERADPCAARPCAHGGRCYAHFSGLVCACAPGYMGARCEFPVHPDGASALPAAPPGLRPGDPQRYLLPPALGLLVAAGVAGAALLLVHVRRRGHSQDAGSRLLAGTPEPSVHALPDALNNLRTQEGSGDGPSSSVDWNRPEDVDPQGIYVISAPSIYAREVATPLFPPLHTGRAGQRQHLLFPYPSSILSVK
In short: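 SPR with biotinylated human DLL3 captured on a streptavidin chip, with a reference surface subtracted. Samples were injected at several concentrations at 100 μL/min in phosphate buffer with 137 mM NaCl, 2.7 mM KCl, 0.05% P20 and 2% DMSO. Kinetic and affinity constants came from a 1:1 binding fit.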

With `C[C@@H](NC(=O)CCCCCNC(=O)CN1CCN(CC(=O)O)CCN(CC(=O)O)CCN(CC(=O)O)CC1)C(=O)N[C@@H](CO)C(=O)N[C@@H](CC(=O)O)C(=O)N[C@H]1CSSC[C@@H](C(=O)N2CCC[C@@]2(C)C(=O)N[C@@H](Cc2ccccc2)C(=O)N[C@@H](CC(=O)O)C(N)=O)NC(=O)[C@H](CC(N)=O)NC(=O)[C@H](Cc2ccc3ccccc3c2)NC(=O)[C@H](CC2CCNCC2)NC(=O)[C@H](CC(C)(C)C)NC(=O)[C@H](Cc2cccc3ccccc23)NC1=O` [compound 177, DOTA-PEG4-S-D-C(3)-(1Nal)-(t-Bu-Ala)-[3-(4-piperidinyl)-Ala]-(2Nal)-N-C(3)-(aMe-P)-F -D-CONH2] ({DOTA-Ahx}-[dA]SDC[1Nal][tBuAla][Ala(piperidin-4-yl)][2Nal]NC[αMeP]FD-NH2; disulfide 4-10) as the molecule, how does the Kd read?
The Kd was 0.098 nM.

How did the Kd turn out when `CC(=O)N[C@@H](CO)C(=O)N[C@@H](CC(=O)O)C(=O)N[C@H]1CSSC[C@@H](C(=O)N2CCC[C@@]2(C)C(=O)N[C@@H](Cc2ccccc2)C(=O)N[C@@H](CC(=O)O)C(=O)N[C@H](CCCCNC(=O)CN2CCN(CC(=O)O)CCN(CC(=O)O)CCN(CC(=O)O)CC2)C(N)=O)NC(=O)[C@H](CC(N)=O)NC(=O)[C@H](Cc2ccc3ccccc3c2)NC(=O)[C@H](CC2CCNCC2)NC(=O)[C@H](CC(C)(C)C)N(C)C(=O)[C@H](Cc2cccc3ccccc23)NC1=O` [compound 178, Ac-S-D-C(3)-(1Nal)-(NMe-Tba)-[3-(4-piperidinyl)-Ala]-(2Nal)-N-C(3)-(aMe-P)-F -D-[D-Lys(DOTA)]-NH2] (Ac-SDC[1Nal][NMetBuAla][Ala(piperidin-4-yl)][2Nal]NC[αMeP]FD[dK](DOTA)-NH2; disulfide 3-9) was run?
The Kd was 2.43 nM.

`CC(=O)N[C@@H](CO)C(=O)N[C@@H](CC(=O)O)C(=O)N[C@H]1CSSC[C@@H](C(=O)N2CCC[C@@]2(C)C(=O)N[C@@H](Cc2ccccc2)C(=O)N[C@@H](CC(=O)O)C(=O)N[C@H](CCCCNC(=O)CN2CCN(CC(=O)O)CCN(CC(=O)O)CCN(CC(=O)O)CC2)C(N)=O)NC(=O)[C@H](CC(N)=O)NC(=O)[C@H](Cc2ccc3ccccc3c2)NC(=O)[C@H](CC2CCNCC2)NC(=O)[C@H](C2CCCCC2)N(C)C(=O)[C@H](Cc2cccc3ccccc23)NC1=O` [compound 179, Ac-S-D-C(3)-(1Nal)-(NMe-Chg)-[3-(4-piperidinyl)-Ala]-(2Nal)-N-C(3)-(aMe-P)-F -D-[D-Lys(DOTA)]-NH2] (Ac-SDC[1Nal][NMeChg][Ala(piperidin-4-yl)][2Nal]NC[αMeP]FD[dK](DOTA)-NH2; disulfide 3-9) was tested. Which Kd did it give?
The Kd was greater than 30 nM.

`CC(=O)N[C@@H](CC1CCNCC1)C(=O)N[C@@H](CO)C(=O)N[C@@H](CC(=O)O)C(=O)N[C@H]1CSSC[C@@H](C(=O)N2CCC[C@@]2(C)C(=O)N[C@@H](Cc2ccccc2)C(=O)N[C@@H](CC(=O)O)C(N)=O)NC(=O)[C@H](CC(N)=O)NC(=O)[C@H](Cc2ccc3ccccc3c2)NC(=O)[C@H](Cc2ccc(CNC(=O)CN3CCN(CC(=O)O)CCN(CC(=O)O)CCN(CC(=O)O)CC3)cc2)NC(=O)[C@H](CC(C)(C)C)N(C)C(=O)[C@H](Cc2cccc3ccccc23)NC1=O` [compound 180, Ac-[3-(4-piperidinyl)-Ala]-S-D-C(3)-(1Nal)-(NMe-Tba)-[PAF(DOTA)]-(2Nal)-N-C(3)-(aMe-P)-F -D-CONH2] (Ac-[Ala(piperidin-4-yl)]SDC[1Nal][NMetBuAla][Phe(4-CH2NH2)](DOTA)[2Nal]NC[αMeP]FD-NH2; disulfide 4-10) was tested. Which Kd did it give?
Its Kd is greater than 30 nM.

For `CC(=O)N[C@@H](CC1CCNCC1)C(=O)N[C@@H](CO)C(=O)N[C@@H](CC(=O)O)C(=O)N[C@H]1CSSC[C@@H](C(=O)N2CCC[C@@]2(C)C(=O)N[C@@H](Cc2ccccc2)C(=O)N[C@@H](CC(=O)O)C(N)=O)NC(=O)[C@H](CC(N)=O)NC(=O)[C@H](Cc2ccc3ccccc3c2)NC(=O)[C@H](Cc2ccc(CNC(=O)CN3CCN(CC(=O)O)CCN(CC(=O)O)CCN(CC(=O)O)CC3)cc2)NC(=O)[C@H](C2CCCCC2)N(C)C(=O)[C@H](Cc2cccc3ccccc23)NC1=O` [compound 181, Ac-[3-(4-piperidinyl)-Ala]-S-D-C(3)-(1Nal)-(NMe-Chg)-[PAF(DOTA)]-(2Nal)-N-C(3)-(aMe-P)-F -D-CONH2] (Ac-[Ala(piperidin-4-yl)]SDC[1Nal][NMeChg][Phe(4-CH2NH2)](DOTA)[2Nal]NC[αMeP]FD-NH2; disulfide 4-10), which Kd is on record?
Its Kd is greater than 30 nM.

For `CC(=O)N[C@H](C(=O)N[C@@H](CO)C(=O)N[C@@H](CC(=O)O)C(=O)N[C@H]1CSSC[C@@H](C(=O)N2CCC[C@@]2(C)C(=O)N[C@@H](Cc2ccccc2)C(=O)N[C@@H](CC(=O)O)C(=O)N[C@H](CCCCNC(=O)CN2CCN(CC(=O)O)CCN(CC(=O)O)CCN(CC(=O)O)CC2)C(N)=O)NC(=O)[C@H](CC(N)=O)NC(=O)[C@H](Cc2ccc3ccccc3c2)NC(=O)[C@H](CC2CCNCC2)NC(=O)[C@H](CC(C)(C)C)N(C)C(=O)[C@H](Cc2cccc3ccccc23)NC1=O)C1CCCCC1` [compound 182, Ac-Chg-S-D-C(3)-(1Nal)-(NMe-Tba)-[3-(4-piperidinyl)-Ala]-(2Nal)-N-C(3)-(aMe-P)-F -D-[D-Lys(DOTA)]-NH2] (Ac-[Chg]SDC[1Nal][NMetBuAla][Ala(piperidin-4-yl)][2Nal]NC[αMeP]FD[dK](DOTA)-NH2; disulfide 4-10), which Kd is on record?
Its Kd is 5.39 nM.

With `CC(=O)N[C@H](C(=O)N[C@@H](CO)C(=O)N[C@@H](CC(=O)O)C(=O)N[C@H]1CSSC[C@@H](C(=O)N2CCC[C@@]2(C)C(=O)N[C@@H](Cc2ccccc2)C(=O)N[C@@H](CC(=O)O)C(=O)N[C@H](CCCCNC(=O)CN2CCN(CC(=O)O)CCN(CC(=O)O)CCN(CC(=O)O)CC2)C(N)=O)NC(=O)[C@H](CC(N)=O)NC(=O)[C@H](Cc2ccc3ccccc3c2)NC(=O)[C@H](CC2CCNCC2)NC(=O)[C@H](C2CCCCC2)N(C)C(=O)[C@H](Cc2cccc3ccccc23)NC1=O)C1CCCCC1` [compound 183, Ac-Chg-S-D-C(3)-(1Nal)-(NMe-Chg)-[3-(4-piperidinyl)-Ala]-(2Nal)-N-C(3)-(aMe-P)-F -D-[D-Lys(DOTA)]-NH2] (Ac-[Chg]SDC[1Nal][NMeChg][Ala(piperidin-4-yl)][2Nal]NC[αMeP]FD[dK](DOTA)-NH2; disulfide 4-10) as the molecule, how does the Kd read?
Its Kd is greater than 30 nM.

For `CC(=O)N[C@H](C(=O)N[C@@H](CO)C(=O)N[C@@H](CC(=O)O)C(=O)N[C@H]1CSSC[C@@H](C(=O)N2CCC[C@@]2(C)C(=O)N[C@@H](Cc2ccccc2)C(=O)N[C@@H](CC(=O)O)C(=O)N[C@H](CCCCNC(=O)CN2CCN(CC(=O)O)CCN(CC(=O)O)CCN(CC(=O)O)CC2)C(N)=O)NC(=O)[C@H](CC(N)=O)NC(=O)[C@H](Cc2c[nH]c3c(C)cccc23)NC(=O)[C@H](CC2CCNCC2)NC(=O)[C@H](CC(C)(C)C)N(C)C(=O)[C@H](Cc2cccc3ccccc23)NC1=O)C1CCCCC1` [compound 184, Ac-Chg-S-D-C(3)-(1Nal)-(NMe-Tba)-[3-(4-piperidinyl)-Ala]-(7Me-W)-N-C(3)-(aMe-P)-F -D-[D-Lys(DOTA)]-NH2] (Ac-[Chg]SDC[1Nal][NMetBuAla][Ala(piperidin-4-yl)][Trp(7-Me)]NC[αMeP]FD[dK](DOTA)-NH2; disulfide 4-10), which Kd is on record?
Its Kd is greater than 30 nM.

With `CC(=O)N[C@H](C(=O)N[C@@H](CO)C(=O)N[C@@H](CC(=O)O)C(=O)N[C@H]1CSSC[C@@H](C(=O)N2CCC[C@@]2(C)C(=O)N[C@@H](Cc2ccccc2)C(=O)N[C@@H](CC(=O)O)C(=O)N[C@H](CCCCNC(=O)CN2CCN(CC(=O)O)CCN(CC(=O)O)CCN(CC(=O)O)CC2)C(N)=O)NC(=O)[C@H](CC(N)=O)NC(=O)[C@H](Cc2c[nH]c3c(C)cccc23)NC(=O)[C@H](CC2CCNCC2)NC(=O)[C@H](C2CCCCC2)N(C)C(=O)[C@H](Cc2cccc3ccccc23)NC1=O)C1CCCCC1` [compound 185, Ac-Chg-S-D-C(3)-(1Nal)-(NMe-Chg)-[3-(4-piperidinyl)-Ala]-(7Me-W)-N-C(3)-(aMe-P)-F -D-[D-Lys(DOTA)]-NH2] (Ac-[Chg]SDC[1Nal][NMeChg][Ala(piperidin-4-yl)][Trp(7-Me)]NC[αMeP]FD[dK](DOTA)-NH2; disulfide 4-10) as the molecule, how does the Kd read?
The Kd was greater than 30 nM.

With `CC(=O)N[C@H](C(=O)N[C@@H](CO)C(=O)N[C@@H](CC(=O)O)C(=O)N[C@H]1C/C=C/C[C@@H](C(=O)N2CCC[C@@]2(C)C(=O)N[C@@H](Cc2ccccc2)C(=O)N[C@@H](CC(=O)O)C(=O)N[C@H](CCCCNC(=O)CN2CCN(CC(=O)O)CCN(CC(=O)O)CCN(CC(=O)O)CC2)C(N)=O)NC(=O)[C@H](CC(N)=O)NC(=O)[C@H](Cc2ccc3ccccc3c2)NC(=O)[C@H](CC2CCNCC2)NC(=O)[C@H](CC(C)(C)C)N(C)C(=O)[C@H](Cc2cccc3ccccc23)NC1=O)C1CCCCC1` [compound 186, Ac-Chg-S-D-AllyG(4)-(1Nal)-(NMe-Tba)-[3-(4-piperidinyl)-Ala]-(2Nal)-N-AllyG(4)-(aMe-P)-F -D-[D-Lys(DOTA)]-NH2] (Ac-[Chg]SD[AllylGly][1Nal][NMetBuAla][Ala(piperidin-4-yl)][2Nal]N[AllylGly][αMeP]FD[dK](DOTA)-NH2; staple (E) 4-10) as the molecule, how does the Kd read?
Its Kd is greater than 30 nM.
